In patent US20220411397A1, “ANALOGUES OF N-ACYL-HOMOSERINE LACTONES AND PHARMACEUTICAL COMPOSITION COMPRISING SAME” (SORBONNE UNIVERSITE, priority 2019, published 2022):

Experiments:
[1] = system: Caco-2/TC7 cells; test: Stimulation of Caco-2/TC7 cells by IL-1β, IL-8 secretion (ELISA); type: cell-based, human
Description: 1.1.1. The Caco-2/TC7 Cell Line • The Caco-2 cell line is derived from a human colon adenocarcinoma and represents a cell culture model of enterocytes lining the epithelium of the small intestinal. […] During the exponential growth phase (from seeding to confluence), the cells remain undifferentiated. At confluence, they can spontaneously (in the absence of differentiation inducers) differentiate and progressively polarize. The differentiation process, which is a growth-related mechanism, is maximal at the end of confluence (stationary phase of the growth curve). • The cells develop a brush border at the apical pole containing microvilli and with characteristic enterocytic enzymes, such as hydrolases. • In accordance with the published literature, the Caco-2/TC7 cells in our experiments were seeded at 10^5 cells/well (equivalent to 10-12×10^3 cells/cm^2) in 6-well plastic culture plates. The cells were maintained in a glucose-rich medium (high glucose in the DMEM GlutaMAX medium 4.5 g/I glucose) supplemented with 20% heat-inactivated foetal calf serum, 1% nonessential amino acids NEAA, and 1% penicillin streptomycin. The cells were grown at 37° C. in a 10% CO2/air atmosphere. The medium was changed every day. Under these conditions, the cells were confluent on day 6. On day 17, the cells were serum-starved, and were used on day 18.
1.2.1. Stimulation of Caco-2/TC7 with Cytokines • The Caco-2/TC7 cells were seeded in 6-well plates at 100,000 cells/well and grown for 18 days. On day 17, the cells were serum-starved, which means that the cell medium was replaced with a foetal calf serum-free medium, and used on day 18. • The stimulation medium was composed of a medium referred to as “starvation medium”, i.e. without foetal calf serum (DMEM GlutaMAX, 1% NEAA, 1% penicillin-streptomycin) with 100 μM of 2-HQ. The cells were incubated for 18 h at 37° C. with 2 ml of stimulation medium containing 0.1% DMSO (negative control) or stimulation medium containing the compounds tested at desired concentrations, with or without proinflammatory cytokines to induce an inflammation. To induce the inflammation, either the IL-1β at 25 ng/ml or the combination of TNF-α and IFN-γ at 50 ng/ml each were used. After 18 h, the supernatants were collected and stored at −80° C. before analysis by ELISA test. The cells were washed with 1 ml of PBS 1×/well, and lysed in 100 μl of PBS 1× containing 1% Triton X-100. The cells were harvested by scraping and stored at −80° C. before the quantification of the protein. The dosing of the LDH was performed immediately before freezing. • All the experiments on the cells were performed in triplicates.
1.2.4. Quantification of the Human Cytokines by ELISA • The levels of the proinflammatory cytokine IL-8 produced by the cells were determined in the cell supernatants and/or cell lysates using the commercially available IL-8 ELISA detection kit (Duoset Human C×CL8/IL-8, ref. DY208) provided by R & D Systems (Minneapolis, Minn., USA) according to the instructions of the manufacturer. • All the cytokine levels were first normalized to the protein content determined in the corresponding cell lysates. Then, to compare the experiments, they could be further normalized using the activated control condition (DMSO+cytokines) as the 100% response.

[2] = biological target: T1, LasR receptor (Pseudomonas aeruginosa, UniProt P25084); test: Activation of the LasR receptor on bacterial reporter strain E. coli pSB1075 (bioluminescence); type: cell-based
T1 construct: expressed in transfected cells; host or cells: Escherichia coli carrying plasmid pSB1075
T1 sequence (P25084 whole entry): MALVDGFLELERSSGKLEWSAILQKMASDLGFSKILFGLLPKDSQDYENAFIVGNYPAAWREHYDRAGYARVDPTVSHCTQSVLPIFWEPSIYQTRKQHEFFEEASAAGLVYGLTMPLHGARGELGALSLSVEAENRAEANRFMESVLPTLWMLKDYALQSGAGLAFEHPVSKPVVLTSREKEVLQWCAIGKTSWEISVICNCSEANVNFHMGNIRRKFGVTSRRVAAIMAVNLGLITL
Description: 1.1.3. The Bacterial Reporter Strain E. coli pSB1075 • A bacterial reporter strain of the Quorum Sensing was used to study the ability of the molecules to be recognized by the Pseudomonas aeruginosa AHL receptor (LasR) and induce an activation. […] This bioluminescent strain was modified by addition of a plasmid pSB1075. This plasmid contains genes encoding both tetracycline resistance and the expression of the LasR AHL receptor from the Pseudomonas aeruginosa bacteria, as well as a fusion gene derived from the LasR promoter and the luxCDABE gene from Photorhabdus luminescence. The bacterial strain was grown in the LB medium supplemented with 5 μg/ml tetracycline to exert a selection pressure and ensure that only the desired strain was amplified. The fusion gene included in the plasmid gives the bacteria the ability to emit a bioluminescence when the LasR receptor is activated, and provides the user with a robust test for the molecular screening. […] On day 1, the culture was diluted 1:100 (P1) in 10 ml of LB medium supplemented with 5 μg/ml tetracycline and maintained for 24 hours at 37° C. under stirring at 70 rpm. On day 2, the experiment took place: a bacterial suspension extemporaneously diluted 1:10 in LB medium supplemented with 5 μg/ml tetracycline (P2) was dispensed into a black opaque 96-well plate and incubated for 4 hours with a range of AHL concentrations or controls until the resulting luminescence was read at the end point. All experiments were performed in triplicates.
1.3. […] This bioluminescent strain was developed by the addition of a plasmid pSB1075 containing genes encoding the tetracycline resistance and the expression of the LasR AHL receptor, as well as a fusion gene of the LasR promoter and the luxCDABE gene of Photorhabdus luminescence. • On day 1, a 1/100 dilution of the bacterial strain (P1) was grown for 24 hours at 37° C. under stirring (70 rpm) in a LB medium containing 5 μg/ml tetracycline (pressure selective). On day 2, P1 was diluted 1:10 in the same medium to obtain P2. In a black 96-well plate were placed 200 μL of P2 and 10 μL of the short chain compound (medium, water and DMSO for the negative controls, C4-HSL as positive control, and the test sample at the desired concentration). The plate was incubated for 4 hours at 37° C. under stirring at 70 rpm. […] After that, the incubation was continued according to the conventional protocol, with the test compound at the desired concentrations.

| Compound | activity on IL-1β-stimulated Caco-2/TC7 cells compared with natural 3-oxo-C12 HSL ([1]; 1-50 μM range) | EC50 [2] [µM] | activity on IL-1β-stimulated Caco-2/TC7 cells compared with natural 3-oxo-C12 HSL ([1]; 10-100 μM range) |
| --- | --- | --- | --- |
| CCCCCCCCCC(=O)CC(=O)N[C@H]1CCCC[C@@H]1O [I-2, N-[(1S,2S)-2-hydroxycyclohexyl]-3-oxo-dodecanamide] | an activity equivalent to that of the natural 3-oxo-C12 HSL | 0.165 |  |
| CCCCCCCCCC(=O)CC(=O)N[C@H]1CCCC[C@H]1O [I-4, N-[(1S,2R)-2-hydroxycyclohexyl]-3-oxo-dodecanamide] | an activity equivalent to that of the natural 3-oxo-C12 HSL | 200 |  |
| CCCCCCCCCC(=O)CC(=O)Nc1cc(Cl)ccc1O [I-6, N-(5-chloro-2-hydroxyphenyl)-3-oxododecanamide] |  | > 1000 | a significantly higher activity than that of the natural 3-oxo-C12 HSL |
